The source of these data is ChEMBL document CHEMBL1201862, “PubChem BioAssay data set” (2004).

The structures appear in SMILES notation.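 Exposure lasted 48 hours, with cells grown in 96-well plates and compounds tested at five concentrations. Abbreviation: GI50, concentration required for 50% inhibition of growth.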 Calls of active or inactive are those of the source. No stated cut-off is given here; in the data, active = GI50 up to about 1.1 µM and inactive = higher.

Test systems include KM12; 786-0; LOX IMVI; UACC-257; HT-29; EKVX; HOP-92; SF-295; UO-31; MOLT-4; HCT-15; NCI-H460; M14; NCI-H522; OVCAR-3; HL-60; Hs-578T; BT-549; U-251; DU-145.
Holding throughout (test): growth of human tumour cells (NCI), 48 h

For the compound `O=C(N/N=C/c1ccc([N+](=O)[O-])cc1)Nc1ccc(Br)cc1`, the GI50 in the assay on KM12 is > 100 µM (inactive); in the assay with 786-0 it was 84.7 µM (inactive); in the assay on LOX IMVI it was 51.1 µM (inactive); with UACC-257, > 100 µM (inactive); in the assay with HT-29, 97.1 µM (inactive); in the assay on EKVX, 99.1 µM (inactive). Further, the GI50 in the assay with HOP-92 was > 100 µM (inactive); with SF-295, > 100 µM (inactive); in the assay with UO-31, > 100 µM (inactive); in the assay on MOLT-4 it was 36.4 µM (inactive); in the assay with HCT-15 it was over 100 µM; in the assay on NCI-H460 it was > 100 µM (inactive). Moreover, the GI50 was 45.2 µM (inactive) in the assay with M14; 64.7 µM (inactive) in the assay with NCI-H522; 32.2 µM (inactive) with OVCAR-3; 40.5 µM (inactive) with HL-60; > 100 µM (inactive) in the assay on Hs-578T; > 100 µM (inactive) with BT-549. In addition, the GI50 with U-251 was 69.3 µM (inactive); in the assay with DU-145, 47.9 µM (inactive).
Regarding `CC(=O)OCC1OC(N2C(=O)NC(=O)C3C=C4CCCCC4=CC32)CC1OC(C)=O` (configuration not stated), the GI50 in the assay on KM12, in the assay with 786-0, in the assay on LOX IMVI, with UACC-257, in the assay with HT-29 and with EKVX was > 100 µM (inactive) in each case. Besides, the GI50 is > 100 µM (inactive) with HOP-92; > 100 µM (inactive) in the assay on SF-295; > 100 µM (inactive) in the assay on UO-31; > 100 µM (inactive) in the assay on MOLT-4; over 100 µM with HCT-15; > 100 µM (inactive) in the assay on NCI-H460. The GI50 in the assay on M14 is > 100 µM (inactive); with NCI-H522 it was 70 µM (inactive); with OVCAR-3, > 100 µM (inactive); with HL-60, 72.8 µM (inactive); with Hs-578T, > 100 µM (inactive); with BT-549, > 100 µM (inactive). Besides, the GI50 with U-251 and with DU-145 was > 100 µM (inactive) throughout.
Regarding `COc1cccc(OC)c1/C=C1\OC(=O)c2cccc(OC)c21`, the GI50 is 1.74 µM (inactive) with KM12; 5.02 µM (inactive) in the assay with 786-0; 6.28 µM (inactive) with LOX IMVI; 7.43 µM (inactive) in the assay with UACC-257; 2.11 µM (inactive) in the assay with HT-29; 10.3 µM (inactive) in the assay on EKVX. In addition, the GI50 in the assay with HOP-92 is 8.69 µM (inactive); with SF-295 it was 3.13 µM (inactive); in the assay on UO-31, 5.47 µM (inactive); with MOLT-4 it was 5.64 µM (inactive); in the assay with HCT-15 it was 2.24 µM; with NCI-H460 it was 2.65 µM (inactive). Moreover, the GI50 in the assay with M14 was 4.1 µM (inactive); in the assay on NCI-H522, 2.5 µM (inactive); in the assay on OVCAR-3, 2.51 µM (inactive); in the assay with HL-60, 0.931 µM (active); in the assay with Hs-578T it was 3.96 µM (inactive); in the assay with BT-549, 5.22 µM (inactive). Also, the values for the GI50 with U-251 and in the assay on DU-145 were 3.32 µM (inactive) and 5.32 µM (inactive), respectively.
For `CCOC(=O)N/N=C(\CC)NO`, the GI50 with KM12, in the assay with 786-0, with LOX IMVI, with UACC-257, in the assay on HT-29 and in the assay on EKVX was > 100 µM (inactive) each time. The GI50 in the assay with HOP-92 is > 100 µM (inactive); with UO-31 it was > 100 µM (inactive); in the assay with MOLT-4 it was > 100 µM (inactive); in the assay on HCT-15 it was over 100 µM; with NCI-H460, > 100 µM (inactive); in the assay with NCI-H522 it was > 100 µM (inactive). Further, the GI50 with OVCAR-3, in the assay on HL-60, in the assay on Hs-578T, with BT-549, in the assay with U-251 and in the assay with DU-145 was > 100 µM (inactive) in each case.
As for `CCOC(=O)C1=NN(c2ccccc2)C(=O)/C1=C\NC(=S)C(N)=S`, the GI50 in the assay on KM12 was 70.6 µM (inactive); in the assay on 786-0 it was 20.7 µM (inactive); with LOX IMVI, 37.8 µM (inactive); with UACC-257, 68.5 µM (inactive); with HT-29 it was 41.8 µM (inactive); in the assay on EKVX, 27.2 µM (inactive). Moreover, the GI50 in the assay with HOP-92 is 39.1 µM (inactive); in the assay with SF-295, 74.6 µM (inactive); in the assay on UO-31, 19.2 µM (inactive); in the assay with MOLT-4 it was 26.4 µM (inactive); in the assay on HCT-15, 34.1 µM; in the assay on NCI-H460 it was 49.3 µM (inactive). In addition, the GI50 was 26.5 µM (inactive) in the assay with M14; 16.6 µM (inactive) in the assay on NCI-H522; 38.5 µM (inactive) with OVCAR-3; 38.9 µM (inactive) in the assay on HL-60; 32.7 µM (inactive) with Hs-578T; 35 µM (inactive) with BT-549. The GI50 is 42.3 µM (inactive) in the assay with U-251 and 50.9 µM (inactive) in the assay with DU-145.
Consider `C=CCN(C(C)=O)c1cc(OCc2ccccc2)c2c(c1)c(C)cn2S(=O)(=O)c1ccccc1`, for which the GI50 is 3.85 µM (inactive) in the assay on KM12; 6.21 µM (inactive) with 786-0; 5.07 µM (inactive) with LOX IMVI; 5.11 µM (inactive) with UACC-257; 5.55 µM (inactive) in the assay with HT-29; 8.85 µM (inactive) with EKVX. Further, the GI50 with HOP-92 is 5.96 µM (inactive); with SF-295, 3.94 µM (inactive); in the assay on UO-31 it was 2.86 µM (inactive); in the assay on MOLT-4, 2.67 µM (inactive); with HCT-15, 4.79 µM; with NCI-H460, 4.75 µM (inactive). The GI50 is 5.4 µM (inactive) in the assay on M14; 4.08 µM (inactive) in the assay with NCI-H522; 4.15 µM (inactive) in the assay with OVCAR-3; 4.89 µM (inactive) in the assay on HL-60; 7.4 µM (inactive) in the assay with Hs-578T; 11.4 µM (inactive) in the assay on BT-549. Also, the GI50 in the assay with U-251 is 4.98 µM (inactive); in the assay on DU-145 it was 9.75 µM (inactive).
For the compound `CCOP(=O)(OCC)[C@H]1OC(C)(C)O[C@@H]1CO`, the GI50 with KM12, in the assay with 786-0, with LOX IMVI, in the assay on UACC-257, with HT-29 and in the assay on EKVX was > 100 µM (inactive) in each case. For the same compound, the GI50 with HOP-92 is > 100 µM (inactive); in the assay with SF-295 it was > 100 µM (inactive); in the assay on MOLT-4, > 100 µM (inactive); in the assay on HCT-15, over 100 µM; in the assay with NCI-H460, > 100 µM (inactive); in the assay with M14, > 100 µM (inactive). Also, the GI50 with NCI-H522, with OVCAR-3, in the assay on HL-60, in the assay with Hs-578T, in the assay on BT-549 and with U-251 was > 100 µM (inactive) each time. In addition, the GI50 with DU-145 is > 100 µM (inactive).
In the case of `CCO/C=N/C1=C(C#N)C(c2ccc(OC)c(OC)c2)c2c(-c3ccccc3)nn(-c3ccccc3)c2O1` (configuration not stated), the GI50 with KM12 was 8.02 µM (inactive); with 786-0 it was 13.6 µM (inactive); in the assay on LOX IMVI it was 15.4 µM (inactive); with UACC-257, > 100 µM (inactive); in the assay on HT-29, 19.1 µM (inactive); in the assay with EKVX, 16.1 µM (inactive). For the same compound, the GI50 in the assay with HOP-92 was 13.4 µM (inactive); in the assay on SF-295, 11.1 µM (inactive); in the assay with UO-31, 17.7 µM (inactive); in the assay with MOLT-4, 8.02 µM (inactive); in the assay with HCT-15, 5.11 µM; in the assay with NCI-H460, > 100 µM (inactive). Further, the GI50 in the assay with M14 was 21.4 µM (inactive); in the assay with NCI-H522 it was 10.6 µM (inactive); in the assay on OVCAR-3, 16.1 µM (inactive); in the assay on HL-60 it was 3.21 µM (inactive); in the assay with Hs-578T, 20.5 µM (inactive); in the assay with BT-549, 8.13 µM (inactive). The GI50 with U-251 is 12.7 µM (inactive); in the assay on DU-145, 14.6 µM (inactive).
Take `O=C1NC2CCCCC2N=C1CC(=O)c1ccc(Br)cc1` (configuration not stated): the GI50 with KM12 was > 100 µM (inactive); with 786-0, 64.1 µM (inactive); in the assay on LOX IMVI it was 19.2 µM (inactive); in the assay with UACC-257 it was > 100 µM (inactive); in the assay on HT-29 it was > 100 µM (inactive); with EKVX, 17.8 µM (inactive). Besides, the GI50 is 10.2 µM (inactive) with HOP-92; 17.9 µM (inactive) in the assay with SF-295; 3.86 µM (inactive) in the assay with UO-31; 5.61 µM (inactive) with MOLT-4; 29.4 µM in the assay on HCT-15; 3.4 µM (inactive) in the assay with NCI-H460. In addition, the GI50 in the assay on M14 is > 100 µM (inactive); in the assay on NCI-H522, 3.05 µM (inactive); in the assay with OVCAR-3 it was > 100 µM (inactive); with HL-60, > 100 µM (inactive); in the assay with Hs-578T, 4.86 µM (inactive); in the assay on BT-549, 14.6 µM (inactive). Besides, the GI50 was 20.6 µM (inactive) in the assay on U-251 and > 100 µM (inactive) in the assay with DU-145.
For `CC(C)C1=CC23CCC4C(C)(C(=O)O)CCCC4(C)C2CC1C1C(=O)N(c2ccc(C(=O)O)cc2)C(=O)C13` (configuration not stated), the GI50 in the assay with KM12, in the assay on 786-0, in the assay with LOX IMVI, in the assay on UACC-257, in the assay with HT-29 and in the assay on EKVX was > 100 µM (inactive) throughout. Further, the GI50 with HOP-92 is > 100 µM (inactive); in the assay with SF-295, > 100 µM (inactive); with UO-31 it was > 100 µM (inactive); with MOLT-4, > 100 µM (inactive); in the assay on HCT-15, over 100 µM; in the assay on NCI-H460, > 100 µM (inactive). The GI50 with M14, with NCI-H522, in the assay with OVCAR-3, in the assay on HL-60, in the assay on Hs-578T and with BT-549 was > 100 µM (inactive) each time. Besides, the GI50 in the assay with U-251 and with DU-145 was > 100 µM (inactive) each time.
